Tests used:
Assay in all cases: KINOMEscan competition binding
Conditions in all cases: OR0642 1 µM; read-out: %Control
[1] = molecular target: T1, ABL1(T315I)-phosphorylated (Homo sapiens, UniProt P00519, T315I)
T1 construct: purchased Eurofins DiscoverX (KINOMEscan scanEDGE 97)
Protocol: (§1) Kinome profiling was provided by Eurofins DiscoverX Corporation. Determination of the % control activity for 97 kinases was obtained through an active site-directed competition binding assay that quantitatively measure interactions between compound and kinases. OR0642 was used at 1 μM.
(§2) Supplementary Table 3. KINOMEscan™ Profiling of OR0642. Competition binding assay to
(§3) quantitatively measure interactions between OR0642 (1 µM) and 97 human kinases and disease
(§4) relevant mutant variants.

ACVR1B = molecular target: T2, ACVR1B (Homo sapiens, UniProt P36896)
T2 construct: purchased Eurofins DiscoverX (KINOMEscan scanEDGE 97)
T2 sequence (P36896 24-505): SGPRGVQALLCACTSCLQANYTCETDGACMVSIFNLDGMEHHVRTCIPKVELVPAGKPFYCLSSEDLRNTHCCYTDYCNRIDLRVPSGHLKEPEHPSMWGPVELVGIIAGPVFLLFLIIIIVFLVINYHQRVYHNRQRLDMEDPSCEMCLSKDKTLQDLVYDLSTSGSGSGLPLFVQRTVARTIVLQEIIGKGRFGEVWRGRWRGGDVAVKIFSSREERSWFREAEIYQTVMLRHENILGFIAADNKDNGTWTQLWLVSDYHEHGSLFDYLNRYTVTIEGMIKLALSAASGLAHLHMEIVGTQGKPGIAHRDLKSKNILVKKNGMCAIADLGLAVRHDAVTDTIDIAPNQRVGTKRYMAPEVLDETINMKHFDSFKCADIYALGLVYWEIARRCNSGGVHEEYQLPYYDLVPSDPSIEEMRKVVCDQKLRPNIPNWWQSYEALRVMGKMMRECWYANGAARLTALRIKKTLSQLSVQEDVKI
Protocol: as §1, §2, §3, §4

AKT1 = molecular target: T3, AKT1 (Homo sapiens, UniProt P31749)
T3 construct: purchased Eurofins DiscoverX (KINOMEscan scanEDGE 97)
Protocol: as §1, §2, §3, §4

AKT2 = molecular target: T4, AKT2 (Homo sapiens, UniProt P31751)
T4 construct: purchased Eurofins DiscoverX (KINOMEscan scanEDGE 97)
Protocol: as §1, §2, §3, §4

ALK = molecular target: T5, ALK (Homo sapiens, UniProt Q9UM73)
T5 construct: purchased Eurofins DiscoverX (KINOMEscan scanEDGE 97)
Protocol: as §1, §2, §3, §4

AURKA = molecular target: T6, AURKA (Homo sapiens, UniProt O14965)
T6 construct: purchased Eurofins DiscoverX (KINOMEscan scanEDGE 97)
Protocol: as §1, §2, §3, §4

BRAF = molecular target: T7, BRAF (Homo sapiens, UniProt P15056)
T7 construct: purchased Eurofins DiscoverX (KINOMEscan scanEDGE 97)
Protocol: as §1, §2, §3, §4

BRAF(V600E) = molecular target: T8, BRAF(V600E) (Homo sapiens, UniProt P15056, V600E)
T8 construct: purchased Eurofins DiscoverX (KINOMEscan scanEDGE 97)
Protocol: as §1, §2, §3, §4

BTK = molecular target: T9, BTK (Homo sapiens, UniProt Q06187)
T9 construct: purchased Eurofins DiscoverX (KINOMEscan scanEDGE 97)
Protocol: as §1, §2, §3, §4

CDK11 = molecular target: T10, CDK11 (Homo sapiens, UniProt Q9BWU1)
T10 construct: purchased Eurofins DiscoverX (KINOMEscan scanEDGE 97)
Protocol: as §1, §2, §3, §4

CDK2 = molecular target: T11, CDK2 (Homo sapiens, UniProt P24941)
T11 construct: purchased Eurofins DiscoverX (KINOMEscan scanEDGE 97)
Protocol: as §1, §2, §3, §4

CDK3 = molecular target: T12, CDK3 (Homo sapiens, UniProt Q00526)
T12 construct: purchased Eurofins DiscoverX (KINOMEscan scanEDGE 97)
T12 sequence (Q00526 whole entry): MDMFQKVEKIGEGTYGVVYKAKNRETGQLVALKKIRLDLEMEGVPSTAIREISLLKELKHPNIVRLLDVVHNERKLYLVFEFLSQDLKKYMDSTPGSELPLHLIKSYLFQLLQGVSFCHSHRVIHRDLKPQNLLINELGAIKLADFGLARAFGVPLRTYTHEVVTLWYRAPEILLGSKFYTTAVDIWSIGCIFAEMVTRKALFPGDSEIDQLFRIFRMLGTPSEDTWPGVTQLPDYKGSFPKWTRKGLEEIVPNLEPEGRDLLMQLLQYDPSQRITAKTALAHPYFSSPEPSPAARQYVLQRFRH
Protocol: as §1, §2, §3, §4

CSF1R = molecular target: T13, CSF1R (Homo sapiens, UniProt P07333)
T13 construct: purchased Eurofins DiscoverX (KINOMEscan scanEDGE 97)
Protocol: as §1, §2, §3, §4

CSNK1D = molecular target: T14, CSNK1D (Homo sapiens, UniProt P48730)
T14 construct: purchased Eurofins DiscoverX (KINOMEscan scanEDGE 97)
Protocol: as §1, §2, §3, §4

CSNK1G2 = molecular target: T15, CSNK1G2 (Homo sapiens, UniProt P78368)
T15 construct: purchased Eurofins DiscoverX (KINOMEscan scanEDGE 97)
Protocol: as §1, §2, §3, §4

DCAMKL1 = molecular target: T16, DCAMKL1 (Homo sapiens, UniProt O15075)
T16 construct: purchased Eurofins DiscoverX (KINOMEscan scanEDGE 97)
Protocol: as §1, §2, §3, §4

DYRK1B = molecular target: T17, DYRK1B (Homo sapiens, UniProt Q9Y463)
T17 construct: purchased Eurofins DiscoverX (KINOMEscan scanEDGE 97)
Protocol: as §1, §2, §3, §4

EGFR(L858R) = molecular target: T18, EGFR(L858R) (Homo sapiens, UniProt P00533, L858R)
T18 construct: purchased Eurofins DiscoverX (KINOMEscan scanEDGE 97)
Protocol: as §1, §2, §3, §4

EPHA2 = molecular target: T19, EPHA2 (Homo sapiens, UniProt P29317)
T19 construct: purchased Eurofins DiscoverX (KINOMEscan scanEDGE 97)
Protocol: as §1, §2, §3, §4

ERBB4 = molecular target: T20, ERBB4 (Homo sapiens, UniProt Q15303)
T20 construct: purchased Eurofins DiscoverX (KINOMEscan scanEDGE 97)
Protocol: as §1, §2, §3, §4

FAK = molecular target: T21, FAK (Homo sapiens, UniProt Q05397)
T21 construct: purchased Eurofins DiscoverX (KINOMEscan scanEDGE 97)
T21 sequence (Q05397 whole entry): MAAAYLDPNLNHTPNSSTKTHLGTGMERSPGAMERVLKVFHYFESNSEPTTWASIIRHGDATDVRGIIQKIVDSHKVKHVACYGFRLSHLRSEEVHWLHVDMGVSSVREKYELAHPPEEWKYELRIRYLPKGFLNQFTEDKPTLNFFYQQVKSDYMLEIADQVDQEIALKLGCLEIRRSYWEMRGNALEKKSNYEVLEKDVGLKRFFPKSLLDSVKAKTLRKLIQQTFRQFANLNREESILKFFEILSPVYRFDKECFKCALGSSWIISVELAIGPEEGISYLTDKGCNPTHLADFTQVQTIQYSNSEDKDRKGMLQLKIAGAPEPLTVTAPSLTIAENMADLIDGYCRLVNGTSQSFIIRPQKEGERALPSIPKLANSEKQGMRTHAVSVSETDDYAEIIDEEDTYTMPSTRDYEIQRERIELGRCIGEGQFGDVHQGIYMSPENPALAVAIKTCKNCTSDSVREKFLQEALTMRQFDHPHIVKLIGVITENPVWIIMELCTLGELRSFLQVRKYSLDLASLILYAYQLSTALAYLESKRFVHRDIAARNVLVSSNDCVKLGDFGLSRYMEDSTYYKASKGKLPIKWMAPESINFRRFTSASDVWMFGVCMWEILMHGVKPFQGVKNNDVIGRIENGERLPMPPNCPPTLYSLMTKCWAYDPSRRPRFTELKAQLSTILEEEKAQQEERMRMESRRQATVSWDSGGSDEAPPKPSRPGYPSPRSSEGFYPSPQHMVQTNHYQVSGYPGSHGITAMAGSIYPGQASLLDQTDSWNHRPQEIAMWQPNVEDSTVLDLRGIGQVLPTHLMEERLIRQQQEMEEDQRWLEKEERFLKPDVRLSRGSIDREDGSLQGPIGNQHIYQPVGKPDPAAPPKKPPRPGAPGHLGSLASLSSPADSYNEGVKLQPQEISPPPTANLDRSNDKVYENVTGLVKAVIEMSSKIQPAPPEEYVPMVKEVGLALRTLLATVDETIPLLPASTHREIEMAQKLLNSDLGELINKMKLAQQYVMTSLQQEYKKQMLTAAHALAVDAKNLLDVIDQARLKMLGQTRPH
Protocol: as §1, §2, §3, §4

FGFR2 = molecular target: T22, FGFR2 (Homo sapiens, UniProt P21802)
T22 construct: purchased Eurofins DiscoverX (KINOMEscan scanEDGE 97)
Protocol: as §1, §2, §3, §4

IGF1R = molecular target: T23, IGF1R (Homo sapiens, UniProt P08069)
T23 construct: purchased Eurofins DiscoverX (KINOMEscan scanEDGE 97)
Protocol: as §1, §2, §3, §4

IKK-alpha = molecular target: T24, IKK-alpha (Homo sapiens, UniProt O15111)
T24 construct: purchased Eurofins DiscoverX (KINOMEscan scanEDGE 97)
Protocol: as §1, §2, §3, §4

IKK-beta = molecular target: T25, IKK-beta (Homo sapiens, UniProt O14920)
T25 construct: purchased Eurofins DiscoverX (KINOMEscan scanEDGE 97)
Protocol: as §1, §2, §3, §4

INSR = molecular target: T26, INSR (Homo sapiens, UniProt P06213)
T26 construct: purchased Eurofins DiscoverX (KINOMEscan scanEDGE 97)
Protocol: as §1, §2, §3, §4

JNK2 = molecular target: T27, JNK2 (Homo sapiens, UniProt P45984)
T27 construct: purchased Eurofins DiscoverX (KINOMEscan scanEDGE 97)
Protocol: as §1, §2, §3, §4

KIT(D816V) = molecular target: T28, KIT(D816V) (Homo sapiens, UniProt P10721, D816V)
T28 construct: purchased Eurofins DiscoverX (KINOMEscan scanEDGE 97)
Protocol: as §1, §2, §3, §4

MARK3 = molecular target: T29, MARK3 (Homo sapiens, UniProt P27448)
T29 construct: purchased Eurofins DiscoverX (KINOMEscan scanEDGE 97)
Protocol: as §1, §2, §3, §4

MEK1 = molecular target: T30, MEK1 (Homo sapiens, UniProt Q02750)
T30 construct: purchased Eurofins DiscoverX (KINOMEscan scanEDGE 97)
T30 sequence (Q02750 whole entry): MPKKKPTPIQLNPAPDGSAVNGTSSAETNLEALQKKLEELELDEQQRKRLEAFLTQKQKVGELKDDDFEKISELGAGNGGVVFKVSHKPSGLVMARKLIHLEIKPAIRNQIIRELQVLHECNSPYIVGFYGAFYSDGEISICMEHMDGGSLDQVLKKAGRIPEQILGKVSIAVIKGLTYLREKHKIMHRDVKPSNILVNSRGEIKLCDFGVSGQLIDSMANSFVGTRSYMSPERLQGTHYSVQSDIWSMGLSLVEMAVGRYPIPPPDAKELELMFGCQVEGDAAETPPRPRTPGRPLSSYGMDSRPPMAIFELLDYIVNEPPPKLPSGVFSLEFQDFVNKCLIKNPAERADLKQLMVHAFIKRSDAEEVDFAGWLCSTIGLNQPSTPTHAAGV
Protocol: as §1, §2, §3, §4

MET = molecular target: T31, MET (Homo sapiens, UniProt P08581)
T31 construct: purchased Eurofins DiscoverX (KINOMEscan scanEDGE 97)
Protocol: as §1, §2, §3, §4

MKNK1 = molecular target: T32, MKNK1 (Homo sapiens, UniProt Q9BUB5)
T32 construct: purchased Eurofins DiscoverX (KINOMEscan scanEDGE 97)
Protocol: as §1, §2, §3, §4

MLK1 = molecular target: T33, MLK1 (Homo sapiens, UniProt P80192)
T33 construct: purchased Eurofins DiscoverX (KINOMEscan scanEDGE 97)
Protocol: as §1, §2, §3, §4

PAK1 = molecular target: T34, PAK1 (Homo sapiens, UniProt Q13153)
T34 construct: purchased Eurofins DiscoverX (KINOMEscan scanEDGE 97)
T34 sequence (Q13153 whole entry): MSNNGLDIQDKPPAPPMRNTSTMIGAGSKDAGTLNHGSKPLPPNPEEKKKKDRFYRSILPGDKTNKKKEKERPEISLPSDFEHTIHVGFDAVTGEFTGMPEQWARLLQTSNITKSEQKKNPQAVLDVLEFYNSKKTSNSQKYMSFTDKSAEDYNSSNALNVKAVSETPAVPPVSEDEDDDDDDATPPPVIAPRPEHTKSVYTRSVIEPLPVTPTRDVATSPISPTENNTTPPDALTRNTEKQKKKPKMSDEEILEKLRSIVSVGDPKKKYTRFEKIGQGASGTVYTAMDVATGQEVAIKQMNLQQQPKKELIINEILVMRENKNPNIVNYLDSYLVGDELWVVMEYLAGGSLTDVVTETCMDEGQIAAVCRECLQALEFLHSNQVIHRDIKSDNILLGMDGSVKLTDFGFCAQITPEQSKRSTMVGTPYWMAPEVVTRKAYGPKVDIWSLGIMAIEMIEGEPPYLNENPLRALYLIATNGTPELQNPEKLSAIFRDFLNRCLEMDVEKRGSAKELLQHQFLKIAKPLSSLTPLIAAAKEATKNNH
Protocol: as §1, §2, §3, §4

PAK2 = molecular target: T35, PAK2 (Homo sapiens, UniProt Q13177)
T35 construct: purchased Eurofins DiscoverX (KINOMEscan scanEDGE 97)
Protocol: as §1, §2, §3, §4

PAK4 = molecular target: T36, PAK4 (Homo sapiens, UniProt O96013)
T36 construct: purchased Eurofins DiscoverX (KINOMEscan scanEDGE 97)
T36 sequence (O96013 whole entry): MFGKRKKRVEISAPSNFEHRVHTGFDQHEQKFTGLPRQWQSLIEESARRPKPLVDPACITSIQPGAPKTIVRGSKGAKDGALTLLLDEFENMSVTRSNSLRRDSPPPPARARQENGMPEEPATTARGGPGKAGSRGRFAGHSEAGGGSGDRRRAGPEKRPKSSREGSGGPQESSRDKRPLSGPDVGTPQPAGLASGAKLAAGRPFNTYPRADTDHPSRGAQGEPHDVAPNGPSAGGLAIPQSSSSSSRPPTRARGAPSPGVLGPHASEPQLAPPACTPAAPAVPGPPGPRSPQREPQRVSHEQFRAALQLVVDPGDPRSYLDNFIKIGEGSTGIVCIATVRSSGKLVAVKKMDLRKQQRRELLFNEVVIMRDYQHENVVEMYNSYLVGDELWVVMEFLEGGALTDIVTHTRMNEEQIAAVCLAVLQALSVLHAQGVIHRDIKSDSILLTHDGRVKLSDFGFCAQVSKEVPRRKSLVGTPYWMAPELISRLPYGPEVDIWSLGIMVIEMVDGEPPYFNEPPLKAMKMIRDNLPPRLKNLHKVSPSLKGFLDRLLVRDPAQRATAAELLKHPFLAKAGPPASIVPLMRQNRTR
Protocol: as §1, §2, §3, §4

PDGFRA = molecular target: T37, PDGFRA (Homo sapiens, UniProt P16234)
T37 construct: purchased Eurofins DiscoverX (KINOMEscan scanEDGE 97)
Protocol: as §1, §2, §3, §4

PDGFRB = molecular target: T38, PDGFRB (Homo sapiens, UniProt P09619)
T38 construct: purchased Eurofins DiscoverX (KINOMEscan scanEDGE 97)
Protocol: as §1, §2, §3, §4

PDPK1 = molecular target: T39, PDPK1 (Homo sapiens, UniProt O15530)
T39 construct: purchased Eurofins DiscoverX (KINOMEscan scanEDGE 97)
T39 sequence (O15530 whole entry): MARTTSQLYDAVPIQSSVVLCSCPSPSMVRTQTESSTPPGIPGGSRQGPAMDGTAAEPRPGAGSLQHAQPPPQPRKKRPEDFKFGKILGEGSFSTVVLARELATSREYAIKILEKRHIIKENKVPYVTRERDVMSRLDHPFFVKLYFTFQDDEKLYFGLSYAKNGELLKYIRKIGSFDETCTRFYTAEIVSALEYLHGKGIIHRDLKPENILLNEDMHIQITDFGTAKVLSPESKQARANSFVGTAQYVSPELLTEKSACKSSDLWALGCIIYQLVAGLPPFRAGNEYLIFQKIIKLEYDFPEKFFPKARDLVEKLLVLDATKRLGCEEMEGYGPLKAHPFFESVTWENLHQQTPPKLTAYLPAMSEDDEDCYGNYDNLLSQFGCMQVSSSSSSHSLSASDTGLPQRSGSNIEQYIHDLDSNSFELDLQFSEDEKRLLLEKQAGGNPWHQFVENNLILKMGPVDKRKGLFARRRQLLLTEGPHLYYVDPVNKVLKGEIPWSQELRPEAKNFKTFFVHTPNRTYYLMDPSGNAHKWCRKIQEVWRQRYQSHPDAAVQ
Protocol: as §1, §2, §3, §4

PIK3C2B = molecular target: T40, PIK3C2B (Homo sapiens, UniProt O00750)
T40 construct: purchased Eurofins DiscoverX (KINOMEscan scanEDGE 97)
Protocol: as §1, §2, §3, §4

PIK3CA = molecular target: T41, PIK3CA (Homo sapiens, UniProt P42336)
T41 construct: purchased Eurofins DiscoverX (KINOMEscan scanEDGE 97)
Protocol: as §1, §2, §3, §4

PIK3CG = molecular target: T42, PIK3CG (Homo sapiens, UniProt P48736)
T42 construct: purchased Eurofins DiscoverX (KINOMEscan scanEDGE 97)
T42 sequence (P48736 whole entry): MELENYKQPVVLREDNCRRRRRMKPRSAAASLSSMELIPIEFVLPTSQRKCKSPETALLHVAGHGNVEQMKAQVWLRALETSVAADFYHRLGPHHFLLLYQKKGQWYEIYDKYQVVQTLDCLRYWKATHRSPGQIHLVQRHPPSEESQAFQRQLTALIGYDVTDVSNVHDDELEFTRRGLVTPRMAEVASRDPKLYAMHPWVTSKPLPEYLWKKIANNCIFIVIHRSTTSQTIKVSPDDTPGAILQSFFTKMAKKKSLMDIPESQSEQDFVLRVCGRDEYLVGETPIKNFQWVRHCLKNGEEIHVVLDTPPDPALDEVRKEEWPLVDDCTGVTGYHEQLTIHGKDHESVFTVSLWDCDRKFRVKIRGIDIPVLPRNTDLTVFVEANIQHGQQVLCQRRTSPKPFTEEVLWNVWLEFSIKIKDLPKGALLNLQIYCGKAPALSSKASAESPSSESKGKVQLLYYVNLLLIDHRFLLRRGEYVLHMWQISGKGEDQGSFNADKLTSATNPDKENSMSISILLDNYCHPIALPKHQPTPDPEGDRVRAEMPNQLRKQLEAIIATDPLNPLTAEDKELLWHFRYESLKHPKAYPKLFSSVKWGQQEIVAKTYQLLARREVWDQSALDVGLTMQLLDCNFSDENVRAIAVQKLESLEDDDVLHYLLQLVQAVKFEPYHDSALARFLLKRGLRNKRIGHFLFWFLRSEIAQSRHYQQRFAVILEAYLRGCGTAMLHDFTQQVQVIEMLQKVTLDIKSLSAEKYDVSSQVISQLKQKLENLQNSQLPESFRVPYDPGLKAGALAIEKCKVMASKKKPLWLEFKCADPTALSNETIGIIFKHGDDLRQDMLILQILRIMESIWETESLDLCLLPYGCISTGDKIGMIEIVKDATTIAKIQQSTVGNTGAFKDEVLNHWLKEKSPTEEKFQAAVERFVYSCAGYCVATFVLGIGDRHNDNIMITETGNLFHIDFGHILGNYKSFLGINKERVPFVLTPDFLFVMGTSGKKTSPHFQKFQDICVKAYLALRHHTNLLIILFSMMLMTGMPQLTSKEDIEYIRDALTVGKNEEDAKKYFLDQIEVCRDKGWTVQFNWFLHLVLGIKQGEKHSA
Protocol: as §1, §2, §3, §4

Work on `CCCN(c1nc(-c2nc(N)cc(N)n2)cs1)c1cc(-c2ccc(S(=O)(=O)N3CCN(C)CC3)cc2C(F)(F)F)ccc1C` [OR0642] yielded a remaining binding at 1 µM [1] of 89%, a remaining binding at 1 µM (ACVR1B) of 86% and a remaining binding at 1 µM (AKT1) of 91%. The remaining binding at 1 µM (AKT2) was 100%, the remaining binding at 1 µM (ALK) was 80% and the remaining binding at 1 µM (AURKA) was 96%. The remaining binding at 1 µM (BRAF) was 99%, the remaining binding at 1 µM (BRAF(V600E)) was 98% and the remaining binding at 1 µM (BTK) was 92%. The remaining binding at 1 µM (CDK11) was 100%, the remaining binding at 1 µM (CDK2) was 100% and the remaining binding at 1 µM (CDK3) was 97%. The remaining binding at 1 µM (CSF1R) was 100%, the remaining binding at 1 µM (CSNK1D) was 100% and the remaining binding at 1 µM (CSNK1G2) was 91%. The remaining binding at 1 µM (DCAMKL1) was 81%, the remaining binding at 1 µM (DYRK1B) was 100% and the remaining binding at 1 µM (EGFR(L858R)) was 72%. It also gave a remaining binding at 1 µM (EPHA2) of 90%, a remaining binding at 1 µM (ERBB4) of 100% and a remaining binding at 1 µM (FAK) of 100%. For the same compound, the remaining binding at 1 µM (FGFR2) was 89%, the remaining binding at 1 µM (IGF1R) was 93% and the remaining binding at 1 µM (IKK-alpha) was 65%. The remaining binding at 1 µM (IKK-beta) was 90%, the remaining binding at 1 µM (INSR) was 99% and the remaining binding at 1 µM (JNK2) was 84%. The remaining binding at 1 µM (KIT(D816V)) was 94%, the remaining binding at 1 µM (MARK3) was 100% and the remaining binding at 1 µM (MEK1) was 97%. It also gave a remaining binding at 1 µM (MET) of 100%, a remaining binding at 1 µM (MKNK1) of 100% and a remaining binding at 1 µM (MLK1) of 91%. For the same compound, the remaining binding at 1 µM (PAK1) was 100%, the remaining binding at 1 µM (PAK2) was 98% and the remaining binding at 1 µM (PAK4) was 91%. It also gave a remaining binding at 1 µM (PDGFRA) of 97%, a remaining binding at 1 µM (PDGFRB) of 100% and a remaining binding at 1 µM (PDPK1) of 98%. For the same compound, the remaining binding at 1 µM (PIK3C2B) was 100%, the remaining binding at 1 µM (PIK3CA) was 100% and the remaining binding at 1 µM (PIK3CG) was 100%.

From article PMC10227015, “From a drug repositioning to a structure-based drug design approach to tackle acute lymphoblastic leukemia” (Nature Communications, 2023)
